Results published in patent US20260262643A1, “HERBICIDAL BENZOXAZINES” (FMC CORPORATION, priority 2022, published 2026).

Legend:
oat, wild [1] = test: Test C preemergence; assay type: in vivo, Avena fatua
Outline: (§1)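 Visual injury ratings on a 0–100 scale (100 = complete control) were made against untreated controls 10 days after treatment in the greenhouse. Compounds, formulated with surfactant in non-phytotoxic solvent, were sprayed on soil preemergence or onto one- to two-leaf plants 2–10 cm tall postemergence.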

green foxtail [2] = test: Test C preemergence; assay type: in vivo, Setaria viridis
Outline: as §1

corn [3] = test: Test C preemergence; assay type: in vivo, Zea mays
Outline: as §1

kochia [4] = test: Test C postemergence; assay type: in vivo, Bassia scoparia; settings: 10 days, 0 to 100 scale (0 no effect, 100 complete control)
Outline: as §1

corn [5] = test: Test C postemergence; assay type: in vivo, Zea mays; settings: 10 days, 0 to 100 scale (0 no effect, 100 complete control)
Outline: as §1

kochia [6] = test: Test C preemergence; assay type: in vivo, Bassia scoparia
Outline: as §1

ragweed [7] = test: Test C preemergence; assay type: in vivo, Ambrosia artemisiifolia
Outline: as §1

ryegrass, Italian [8] = test: Test C preemergence; assay type: in vivo, Lolium multiflorum
Outline: as §1

ducksalad = test: Test D flooded paddy test; assay type: in vivo, Heteranthera limosa; settings: 250 g ai/ha, applied to paddy water, visual rating after 13 to 14 days, scale 0 to 100 (0 no effect, 100 complete control)
Outline: (§2)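 Plants at the 2-leaf stage were grown in pots flooded to 3 cm, and compound was applied directly into the paddy water, with depth kept throughout. After 13–14 days in a greenhouse, injury was rated visually against untreated controls on a 0–100 scale (100 = complete control); a dash means not tested.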

rice = test: Test D flooded paddy test; assay type: in vivo, Oryza sativa; settings: 250 g ai/ha, applied to paddy water, visual rating after 13 to 14 days, scale 0 to 100 (0 no effect, 100 complete control)
Outline: as §2

soybean [9] = test: Test C preemergence; assay type: in vivo, Glycine max
Outline: as §1

pigweed, palmer [10] = test: Test C postemergence; assay type: in vivo, Amaranthus palmeri; settings: 10 days, 0 to 100 scale (0 no effect, 100 complete control)
Outline: as §1

green foxtail [11] = test: Test C postemergence; assay type: in vivo, Setaria viridis; settings: 10 days, 0 to 100 scale (0 no effect, 100 complete control)
Outline: as §1

galium = test: Test C postemergence; assay type: in vivo, Galium aparine; settings: 10 days, 0 to 100 scale (0 no effect, 100 complete control)
Outline: as §1

sedge, umbrella = test: Test D flooded paddy test; assay type: in vivo, Cyperus difformis; settings: 250 g ai/ha, applied to paddy water, visual rating after 13 to 14 days, scale 0 to 100 (0 no effect, 100 complete control)
Outline: as §2

wheat [12] = test: Test C preemergence; assay type: in vivo, Triticum aestivum
Outline: as §1

horseweed = test: Test C postemergence; assay type: in vivo, Erigeron canadensis; settings: 10 days, 0 to 100 scale (0 no effect, 100 complete control)
Outline: as §1

ragweed [13] = test: Test C postemergence; assay type: in vivo, Ambrosia artemisiifolia; settings: 10 days, 0 to 100 scale (0 no effect, 100 complete control)
Outline: as §1

barnyardgrass [14] = test: Test C postemergence; assay type: in vivo, Echinochloa crusgalli; settings: 10 days, 0 to 100 scale (0 no effect, 100 complete control)
Outline: as §1

soybean [15] = test: Test C postemergence; assay type: in vivo, Glycine max; settings: 10 days, 0 to 100 scale (0 no effect, 100 complete control)
Outline: as §1

oat, wild [16] = test: Test C postemergence; assay type: in vivo, Avena fatua; settings: 10 days, 0 to 100 scale (0 no effect, 100 complete control)
Outline: as §1

barnyardgrass [17] = test: Test D flooded paddy test; assay type: in vivo, Echinochloa crus-galli; settings: 250 g ai/ha, applied to paddy water, visual rating after 13 to 14 days, scale 0 to 100 (0 no effect, 100 complete control)
Outline: as §2

blackgrass [18] = test: Test C preemergence; assay type: in vivo, Alopecurus myosuroides
Outline: as §1

blackgrass [19] = test: Test C postemergence; assay type: in vivo, Alopecurus myosuroides; settings: 10 days, 0 to 100 scale (0 no effect, 100 complete control)
Outline: as §1

wheat [20] = test: Test C postemergence; assay type: in vivo, Triticum aestivum; settings: 10 days, 0 to 100 scale (0 no effect, 100 complete control)
Outline: as §1

barnyardgrass [21] = test: Test C preemergence; assay type: in vivo, Echinochloa crusgalli
Outline: as §1

ryegrass, Italian [22] = test: Test C postemergence; assay type: in vivo, Lolium multiflorum; settings: 10 days, 0 to 100 scale (0 no effect, 100 complete control)
Outline: as §1

pigweed, palmer [23] = test: Test C preemergence; assay type: in vivo, Amaranthus palmeri
Outline: as §1

[24] = 500 g ai/ha, preemergence, 0 to 100 scale (0 no effect, 100 complete control)
[25] = Preemergence, 125 g ai/ha, 0 to 100 scale, 0 no effect, 100 complete control

CCOC[C@H]1CN(C(=O)c2cc(-n3cnc(C(C)C)n3)ccc2OC)c2cccc(Cl)c2O1 [Compound 341]
Oat, Wild plant response rating (oat, wild [1]; [24]): 80 | Plant response rating, Oat, Wild (oat, wild [1]; [25]): 50 | Foxtail, Green plant response rating (green foxtail [2]; [24]): 100 | Plant response rating, Foxtail, Green (green foxtail [2]; [25]): 100 | Corn plant response rating (corn [3]; [24]): 30 | Plant response rating, Corn (corn [3]; [25]): 20 | Plant response rating, Kochia (kochia [4]; 500 g ai/ha, postemergence): 90 | Plant response rating, Kochia (kochia [4]; Postemergence, 125 g ai/ha): 80 | Plant response rating, Corn (corn [5]; 500 g ai/ha, postemergence): 80 | Plant response rating, Corn (corn [5]; Postemergence, 125 g ai/ha): 0 | Kochia plant response rating (kochia [6]; [24]): 100 | Plant response rating, Kochia (kochia [6]; [25]): 100 | Ragweed plant response rating (ragweed [7]; [24]): 100 | Plant response rating, Ragweed (ragweed [7]; [25]): 80 | Ryegrass, Italian plant response rating (ryegrass, Italian [8]; [24]): 100 | Plant response rating, Ryegrass, Italian (ryegrass, Italian [8]; [25]): 80 | Plant response rating, Ducksalad (Flood) (ducksalad): 70 | Plant response rating, Rice (Flood) (rice): 0 | Soybean plant response rating (soybean [9]; [24]): 60 | Plant response rating, Soybean (soybean [9]; [25]): 100 | Plant response rating, Pigweed, Palmer (pigweed, palmer [10]; 500 g ai/ha, postemergence): 100 | Plant response rating, Pigweed, Palmer (pigweed, palmer [10]; Postemergence, 125 g ai/ha): 80 | Plant response rating, Foxtail, Green (green foxtail [11]; 500 g ai/ha, postemergence): 70 | Plant response rating, Foxtail, Green (green foxtail [11]; Postemergence, 125 g ai/ha): 30 | Plant response rating, Galium (galium; 500 g ai/ha, postemergence): 100 | Plant response rating, Galium (galium; Postemergence, 125 g ai/ha): 90 | Plant response rating, Sedge, Umbrella (Flood) (sedge, umbrella): 90 | Wheat plant response rating (wheat [12]; [24]): 30 | Plant response rating, Wheat (wheat [12]; [25]): 30 | Plant response rating, Horseweed (horseweed; 500 g ai/ha, postemergence): 60 | Plant response rating, Horseweed (horseweed; Postemergence, 125 g ai/ha): 60 | Plant response rating, Ragweed (ragweed [13]; 500 g ai/ha, postemergence): 90 | Plant response rating, Ragweed (ragweed [13]; Postemergence, 125 g ai/ha): 60 | Plant response rating, Barnyardgrass (barnyardgrass [14]; 500 g ai/ha, postemergence): 70 | Plant response rating, Barnyardgrass (barnyardgrass [14]; Postemergence, 125 g ai/ha): 20 | Plant response rating, Soybean (soybean [15]; 500 g ai/ha, postemergence): 100 | Plant response rating, Soybean (soybean [15]; Postemergence, 125 g ai/ha): 100 | Plant response rating, Oat, Wild (oat, wild [16]; 500 g ai/ha, postemergence): 20 | Plant response rating, Oat, Wild (oat, wild [16]; Postemergence, 125 g ai/ha): 10 | Plant response rating, Barnyardgrass (Flood) (barnyardgrass [17]): 25 | Blackgrass plant response rating (blackgrass [18]; [24]): 80 | Plant response rating, Blackgrass (blackgrass [18]; [25]): 20 | Plant response rating, Blackgrass (blackgrass [19]; 500 g ai/ha, postemergence): 50 | Plant response rating, Blackgrass (blackgrass [19]; Postemergence, 125 g ai/ha): 10 | Plant response rating, Wheat (wheat [20]; 500 g ai/ha, postemergence): 20 | Plant response rating, Wheat (wheat [20]; Postemergence, 125 g ai/ha): 10 | Barnyardgrass plant response rating (barnyardgrass [21]; [24]): 100 | Plant response rating, Barnyardgrass (barnyardgrass [21]; [25]): 90 | Plant response rating, Ryegrass, Italian (ryegrass, Italian [22]; 500 g ai/ha, postemergence): 60 | Plant response rating, Ryegrass, Italian (ryegrass, Italian [22]; Postemergence, 125 g ai/ha): 30 | Pigweed, Palmer plant response rating (pigweed, palmer [23]; [24]): 100 | Plant response rating, Pigweed, Palmer (pigweed, palmer [23]; [25]): 100
